In patent US7098243B2, “Bicyclic carbohydrates as antiviral bioactives for the treatment of infections caused by the alphaherpesvirinae HSV-1 and HSV-2” (Kemin Pharma Europe B.V.B.A., priority 2003, dated 2006):
In brackets after ≈: the same amount, converted by molar mass. Entries after “also recorded” stand apart in the source; their conditions may differ. Read-outs that look alike come from different tables or passages of the source.

How the values were obtained:
[1] = system: herpes simplex virus type 2 (HSV-2); assay: Cytopathic effect inhibition assay (CPE) against HSV-2 in HFF cells; details: for EC50: Human alphaherpesvirus 2, HFF
[2] = system: herpes simplex virus type 1 (HSV-1); assay: Cytopathic effect inhibition assay (CPE) against HSV-1 in HFF cells; details: for EC50: Human alphaherpesvirus 1, HFF
[3] = system: human cytomegalo virus (HCMV); assay: Inhibition of viral-induced cytopathicity, HCMV in HFF cells; format: cell-based
[4] = system: Aspergillus fumigatus ATCC 2895; assay: Antifungal microdilution screening (Bioscreen C), A. fumigatus; format: cell-based; details: 3 days at 30° C., RPMI 1640
[5] = system: E. coli ATCC 25922; assay: Antibacterial microdilution screening (Bioscreen C), E. coli; format: cell-based; details: 16 hours at 35° C., Mueller-Hinton broth
[6] = system: Vero cells; details: West Nile screening, reduction of cell viability by 50%
[7] = system: HFF cells; assay: Toxicity (reduction of cell viability) in the HSV, HCMV and VZV screenings; format: cell-based; details: reduction of cell viability by 50%
[8] = system: varicella zoster virus (VZV); assay: Inhibition of viral-induced cytopathicity, VZV in HFF cells; format: cell-based
[9] = system: Staphylococcus aureus ATCC29213; assay: Antibacterial microdilution screening (Bioscreen C), S. aureus; format: cell-based; details: 16 hours at 35° C., Mueller-Hinton broth
[10] = system: Pseudomonas aeruginosa ATCC 27853; assay: Antibacterial microdilution screening (Bioscreen C), P. aeruginosa; format: cell-based; details: 16 hours at 35° C., Mueller-Hinton broth
[11] = system: Clostridium perfringens ATCC 13124; format: cell-based; details: 16 hours at 35° C., Mueller-Hinton broth
[12] = system: Cryptococcus neoformans ATCC 90112; assay: Antifungal microdilution screening (Bioscreen C), C. neoformans; format: cell-based; details: 48 hours at 35° C., RPMI 1640
[13] = system: Trichophyton mentagrophytes ATCC 9533; assay: Antifungal microdilution screening (Bioscreen C), T. mentagrophytes; format: cell-based; details: 5 days at 30° C., RPMI 1640
[14] = system: Candida albicans ATCC 24433; assay: Antifungal microdilution screening (Bioscreen C), C. albicans; format: cell-based; details: 24 hours at 35° C., RPMI 1640
[15] = system: West Nile virus; assay: Inhibition of viral-induced cytopathicity, West Nile virus in Vero cells; format: cell-based
[16] = compounds related to Compound A1 (Table 4)
[17] = viral-induced cytopathicity in HFF cell cultures

With `CCO[C@@H]1[C@@H](OCC)[C@H](Cc2ccccc2)O[C@@H]2CO[C@@H](c3ccccc3)O[C@@H]12` the EC50 ([1]; read-out: EC50 HSV-2) was > 80 µg/mL and the EC50 ([2]; read-out: EC50 HSV-1) was > 80 µg/mL.
In the case of `CO[C@@H]1[C@@H](OC)[C@H](Cc2ccccc2)O[C@@H]2CO[C@@H](c3ccc(Cl)cc3)O[C@@H]12`, the EC50 ([1]; read-out: EC50 HSV-2) is reported as > 16 µg/mL and the EC50 ([2]; read-out: EC50 HSV-1) is reported as > 16 µg/mL.
With `C=CCO[C@@H]1[C@@H](OCC=C)[C@H](Cc2ccccc2)O[C@@H]2CO[C@@H](c3ccc(Cl)cc3)O[C@@H]12` the “EC50 HSV-2” value [1, 16] was >16 µg/mL and the “EC50 HSV-1” value [2, 16] was >16 µg/mL.
`Nc1nc2c(ncn2COCCO)c(=O)[nH]1` [ACV, Acyclovir, reference compound] gave an EC50 ([1]; read-out: ACV EC50) of 0.4 µg/mL (≈ 1.78 µM) and an EC50 ([2]; read-out: ACV EC50) of 1.2 µg/mL (≈ 5.33 µM).
With `CCO[C@@H]1[C@@H](OCC)[C@H](Cc2ccccc2)O[C@@H]2CO[C@@H](c3ccc(Cl)cc3)O[C@@H]12` [Compound A1] the “Compound A1 S.I. (CC50/EC50)” value [3] was <3.5, the Compound A1 EC50 [3, 17] was > 20 µg/mL and the “MIC A. fumigatus ATCC 2895” value [4] was >25 µg/mL. The “Compound A1 S.I. (CC50/EC50)” value ([1]; HSV-2) was >3333, the Compound A1 EC50 ([1]; HSV-2, viral-induced cytopathicity in HFF cell cultures) was < 0.03 µg/mL and the “Activity against HSV-2 (in words)” value ([1]; anti-viral screening) was “strong activity; also recorded: superior effect against HSV-2”. For the same compound, the “MIC E. coli ATCC 25922” value [5] was >25 µg/mL, the “Compound A1 CC50” value [6] was 50 µg/mL and the “Compound A1 CC50” value ([7]; HCMV screening) was 71.0 µg/mL. For the same compound, the “Compound A1 CC50” value ([7]; HSV-1 screening) was >100 µg/mL, the “Compound A1 CC50” value ([7]; HSV-2 screening) was >100 µg/mL and the “Compound A1 CC50” value ([7]; VZV screening) was >100 µg/mL. The “Compound A1 S.I. (CC50/EC50)” value [8] was 0, the Compound A1 EC50 [8, 17] was > 100 µg/mL and the “MIC S. aureus ATCC 29213” value [9] was >25 µg/mL. The “MIC P. aeruginosa ATCC 27853” value [10] was >25 µg/mL, the “MIC C. perfringens ATCC 13124” value [11] was >25 µg/mL and the “MIC C. neoformans ATCC 90112” value [12] was >25 µg/mL. For the same compound, the “MIC T. mentagrophytes ATCC 9533” value [13] was >25 µg/mL, the “Compound A1 S.I. (CC50/EC50)” value ([2]; HSV-1) was >33.3 and the Compound A1 EC50 ([2]; HSV-1, viral-induced cytopathicity in HFF cell cultures) was 3 µg/mL. For the same compound, the “Activity against HSV-1 (in words)” value ([2]; anti-viral screening) was “strong activity”, the “MIC C. albicans ATCC 24433” value [14] was >25 µg/mL and the “Compound A1 S.I. (CC50/EC50)” value ([15]; West Nile) was 0. The Compound A1 EC50 ([15]; West Nile virus, Vero cells) was > 50 µg/mL.
For `Nc1nc(O)c2ncn(COC(CO)CO)c2n1` [GCV, ganciclovir, reference compound], the EC50 ([3]; Human betaherpesvirus 5, HFF, reference product, read-out: GCV EC50) was 0.8 µg/mL (≈ 3.13 µM).
